Source: patent US20070049564A1 (Wyeth, priority 2005, published 2007)
Values after ≈ are worked out from the molar mass of the structure shown. Like-named read-outs stand apart in the source and are kept apart here.

Tests used:
E. coli GC 2233 = assay: MIC, broth microdilution; settings: Escherichia coli
E. coli GC 6465 = assay: MIC, broth microdilution; settings: Escherichia coli
E. faecium GC 2243 = assay: MIC, broth microdilution; settings: Enterococcus faecium
S. aureus GC 6466 = assay: MIC, broth microdilution; settings: Staphylococcus aureus
E. coli GC 4560 = assay: MIC, broth microdilution; settings: Escherichia coli
E. faecium GC 4556 = assay: MIC, broth microdilution; settings: Enterococcus faecium
E. coli GC 2231 = assay: MIC, broth microdilution; settings: Escherichia coli
c. albicans GC 3066 = assay: MIC, broth microdilution
S. aureus GC 4536 = assay: MIC, broth microdilution; settings: Staphylococcus aureus
S. aureus GC 6469 = assay: MIC, broth microdilution; settings: Staphylococcus aureus
S. typhimurium GC 2172 = assay: MIC, broth microdilution; settings: Salmonella enterica, TYPHIMURIUM
S. aureus GC 6467 = assay: MIC, broth microdilution; settings: Staphylococcus aureus
S. aureus GC 2216 = assay: MIC, broth microdilution; settings: Staphylococcus aureus
S. aureus GC 1079 = assay: MIC, broth microdilution; settings: Staphylococcus aureus
Procedure: Antimicrobial susceptibility testing. The in vitro activities of the antibiotics are determined by the broth microdilution method as recommended by the National Committee for Clinical Laboratory Standards (NCCLS) (1). Mueller-Hinton II broth (MHBII)(BBL Cockeysville, Md.) is the medium employed in the testing procedures. Microtiter plates containing serial dilutions of each antimicrobial agent are inoculated with each organism to yield the appropriate density (10^5 CFU/ml) in a 100 μl final volume. The plates are incubated for 18-22 hours at 35° C. in ambient air.
Representative compounds were first incubated in mouse serum for an hour prior to the in vitro testing against a panel of selected gram-positive and gram-negative bacteria strains. All compounds were also pre-incubated in water for an hour prior to testing as control. Representative compounds of Formula I were incubated in human serum prior to MIC determination.

E. coli = assay: Range of MIC for E. coli strains; settings: Escherichia coli
E. coli GC 2235 = assay: MIC, broth microdilution; settings: Escherichia coli
E. coli GC 2270 = assay: MIC, broth microdilution; settings: Escherichia coli
E. faecalis GC 2242 = assay: MIC, broth microdilution; settings: Enterococcus faecalis
E. coli GC 1073 = assay: MIC, broth microdilution; settings: Escherichia coli
Staph. = assay: Range of MIC for Staph. strains, including MRSA; settings: Staphylococcus aureus

CN(C)c1cc(NC(=O)CN(C(=O)OCOC(=O)c2ccc(F)cc2)C(C)(C)C)c(O)c2c1C[C@H]1C[C@H]3[C@H](N(C)C)C(O)=C(C(N)=O)C(=O)[C@@]3(O)C(O)=C1C2=O [Example 52, ({[(2-{[(5aR,6aS,7S,10aS)-9-(aminocarbonyl)-4,7-bis(dimethylamino)-1,8,10a,11-tetrahydroxy-10,12-dioxo-5,5a,6,6a,7,10,10a,12-octahydrotetracen-2-yl]amino}-2-oxoethyl)(tert-butyl)amino]carbonyl}oxy)methyl 4-fluorobenzoate]
MIC (E. coli GC 2233; GC2233, read-out: MINIMAL INHIBITORY CONCENTRATION MIC, Human Serum): 8 µg/mL (≈ 10.2 µM)
MIC (E. coli GC 2233; GC2233, read-out: MINIMAL INHIBITORY CONCENTRATION MIC, Mouse Serum): 0.5 µg/mL (≈ 0.64 µM)
MIC (E. coli GC 2233; GC2233, read-out: MINIMAL INHIBITORY CONCENTRATION MIC, Water): 8 µg/mL (≈ 10.2 µM)
MIC (E. coli GC 6465; GC6465, read-out: MINIMAL INHIBITORY CONCENTRATION MIC, Human Serum): 16 µg/mL (≈ 20.5 µM)
MIC (E. coli GC 6465; GC6465, read-out: MINIMAL INHIBITORY CONCENTRATION MIC, Mouse Serum): 2 µg/mL (≈ 2.56 µM)
MIC (E. coli GC 6465; GC6465, read-out: MINIMAL INHIBITORY CONCENTRATION MIC, Water): 64 µg/mL (≈ 81.9 µM)
MIC (E. faecium GC 2243; GC2243, read-out: MINIMAL INHIBITORY CONCENTRATION MIC, Human Serum): 1 µg/mL (≈ 1.28 µM)
MIC (E. faecium GC 2243; GC2243, read-out: MINIMAL INHIBITORY CONCENTRATION MIC, Mouse Serum): 0.25 µg/mL (≈ 0.32 µM)
MIC (E. faecium GC 2243; GC2243, read-out: MINIMAL INHIBITORY CONCENTRATION MIC, Water): 1 µg/mL (≈ 1.28 µM)
MIC (S. aureus GC 6466; GC6466, read-out: MINIMAL INHIBITORY CONCENTRATION MIC, Human Serum): 1 µg/mL (≈ 1.28 µM)
MIC (S. aureus GC 6466; GC6466, read-out: MINIMAL INHIBITORY CONCENTRATION MIC, Mouse Serum): 0.5 µg/mL (≈ 0.64 µM)
MIC (S. aureus GC 6466; GC6466, read-out: MINIMAL INHIBITORY CONCENTRATION MIC, Water): 2 µg/mL (≈ 2.56 µM)
MIC (E. coli GC 4560; GC4560, read-out: MINIMAL INHIBITORY CONCENTRATION MIC, Human Serum): 2 µg/mL (≈ 2.56 µM)
MIC (E. coli GC 4560; GC4560, read-out: MINIMAL INHIBITORY CONCENTRATION MIC, Mouse Serum): 0.25 µg/mL (≈ 0.32 µM)
MIC (E. coli GC 4560; GC4560, read-out: MINIMAL INHIBITORY CONCENTRATION MIC, Water): 2 µg/mL (≈ 2.56 µM)
MIC (E. faecium GC 4556; GC4556, read-out: MINIMAL INHIBITORY CONCENTRATION MIC, Human Serum): 2 µg/mL (≈ 2.56 µM)
MIC (E. faecium GC 4556; GC4556, read-out: MINIMAL INHIBITORY CONCENTRATION MIC, Mouse Serum): 0.5 µg/mL (≈ 0.64 µM)
MIC (E. faecium GC 4556; GC4556, read-out: MINIMAL INHIBITORY CONCENTRATION MIC, Water): 4 µg/mL (≈ 5.12 µM)
MIC (E. coli GC 2231; GC2231, read-out: MINIMAL INHIBITORY CONCENTRATION MIC, Human Serum): 8 µg/mL (≈ 10.2 µM)
MIC (E. coli GC 2231; GC2231, read-out: MINIMAL INHIBITORY CONCENTRATION MIC, Mouse Serum): 1 µg/mL (≈ 1.28 µM)
MIC (E. coli GC 2231; GC2231, read-out: MINIMAL INHIBITORY CONCENTRATION MIC, Water): 16 µg/mL (≈ 20.5 µM)
MIC (c. albicans GC 3066; Candida albicans, GC3066, read-out: MINIMAL INHIBITORY CONCENTRATION MIC): > 64 µg/mL
MINIMAL INHIBITORY CONCENTRATION MIC (c. albicans GC 3066; Human Serum): >64 UG/ML
MINIMAL INHIBITORY CONCENTRATION MIC (c. albicans GC 3066; Mouse Serum): >64 UG/ML
MIC (S. aureus GC 4536; GC4536, read-out: MINIMAL INHIBITORY CONCENTRATION MIC, Human Serum): 0.5 µg/mL (≈ 0.64 µM)
MIC (S. aureus GC 4536; GC4536, read-out: MINIMAL INHIBITORY CONCENTRATION MIC, Mouse Serum): 0.5 µg/mL (≈ 0.64 µM)
MIC (S. aureus GC 4536; GC4536, read-out: MINIMAL INHIBITORY CONCENTRATION MIC, Water): 2 µg/mL (≈ 2.56 µM)
MIC (S. aureus GC 6469; GC6469, read-out: MINIMAL INHIBITORY CONCENTRATION MIC, Human Serum): 2 µg/mL (≈ 2.56 µM)
MIC (S. aureus GC 6469; GC6469, read-out: MINIMAL INHIBITORY CONCENTRATION MIC, Mouse Serum): 0.5 µg/mL (≈ 0.64 µM)
MIC (S. aureus GC 6469; GC6469, read-out: MINIMAL INHIBITORY CONCENTRATION MIC, Water): 4 µg/mL (≈ 5.12 µM)
MIC (S. typhimurium GC 2172; read-out: MINIMAL INHIBITORY CONCENTRATION MIC, Human Serum): 64 µg/mL (≈ 81.9 µM)
MIC (S. typhimurium GC 2172; read-out: MINIMAL INHIBITORY CONCENTRATION MIC, Mouse Serum): 4 µg/mL (≈ 5.12 µM)
MIC (S. typhimurium GC 2172; read-out: MINIMAL INHIBITORY CONCENTRATION MIC, Water): 64 µg/mL (≈ 81.9 µM)
MIC (S. aureus GC 6467; GC6467, read-out: MINIMAL INHIBITORY CONCENTRATION MIC, Human Serum): 4 µg/mL (≈ 5.12 µM)
MIC (S. aureus GC 6467; GC6467, read-out: MINIMAL INHIBITORY CONCENTRATION MIC, Mouse Serum): 0.5 µg/mL (≈ 0.64 µM)
MIC (S. aureus GC 6467; GC6467, read-out: MINIMAL INHIBITORY CONCENTRATION MIC, Water): 4 µg/mL (≈ 5.12 µM)
MIC (S. aureus GC 2216; GC2216, read-out: MINIMAL INHIBITORY CONCENTRATION MIC, Human Serum): 1 µg/mL (≈ 1.28 µM)
MIC (S. aureus GC 2216; GC2216, read-out: MINIMAL INHIBITORY CONCENTRATION MIC, Mouse Serum): 0.5 µg/mL (≈ 0.64 µM)
MIC (S. aureus GC 2216; GC2216, read-out: MINIMAL INHIBITORY CONCENTRATION MIC, Water): 4 µg/mL (≈ 5.12 µM)
MIC (S. aureus GC 1079; GC1079, read-out: MINIMAL INHIBITORY CONCENTRATION MIC, Human Serum): 1 µg/mL (≈ 1.28 µM)
MIC (S. aureus GC 1079; GC1079, read-out: MINIMAL INHIBITORY CONCENTRATION MIC, Mouse Serum): 0.5 µg/mL (≈ 0.64 µM)
MIC (S. aureus GC 1079; GC1079, read-out: MINIMAL INHIBITORY CONCENTRATION MIC, Water): 2 µg/mL (≈ 2.56 µM)
MIC (E. coli; 20 h, read-out: Range of MIC, E. coli (Mouse Serum)): 0.5 to 1 µg/mL (≈ 0.64 to 1.28 µM)
MIC (E. coli; read-out: Minimum inhibitory concentration (MIC), E. coli (Human Serum)): 4 to 16 µg/mL (≈ 5.12 to 20.5 µM)
MIC (E. coli; read-out: Minimum inhibitory concentration (MIC), E. coli (water)): 4 to 16 µg/mL (≈ 5.12 to 20.5 µM)
MIC (E. coli; read-out: Range of MIC, E. coli (Water)): 4 to 16 µg/mL (≈ 5.12 to 20.5 µM)
MIC (E. coli GC 2235; GC2235, read-out: MINIMAL INHIBITORY CONCENTRATION MIC, Human Serum): 4 µg/mL (≈ 5.12 µM)
MIC (E. coli GC 2235; GC2235, read-out: MINIMAL INHIBITORY CONCENTRATION MIC, Mouse Serum): 0.5 µg/mL (≈ 0.64 µM)
MIC (E. coli GC 2235; GC2235, read-out: MINIMAL INHIBITORY CONCENTRATION MIC, Water): 4 µg/mL (≈ 5.12 µM)
MIC (E. coli GC 2270; GC2270, read-out: MINIMAL INHIBITORY CONCENTRATION MIC, Human Serum): 4 µg/mL (≈ 5.12 µM)
MIC (E. coli GC 2270; GC2270, read-out: MINIMAL INHIBITORY CONCENTRATION MIC, Mouse Serum): 0.5 µg/mL (≈ 0.64 µM)
MIC (E. coli GC 2270; GC2270, read-out: MINIMAL INHIBITORY CONCENTRATION MIC, Water): 4 µg/mL (≈ 5.12 µM)
MIC (E. faecalis GC 2242; GC2242, read-out: MINIMAL INHIBITORY CONCENTRATION MIC, Human Serum): 4 µg/mL (≈ 5.12 µM)
MIC (E. faecalis GC 2242; GC2242, read-out: MINIMAL INHIBITORY CONCENTRATION MIC, Mouse Serum): 0.5 µg/mL (≈ 0.64 µM)
MIC (E. faecalis GC 2242; GC2242, read-out: MINIMAL INHIBITORY CONCENTRATION MIC, Water): 4 µg/mL (≈ 5.12 µM)
MIC (E. coli GC 1073; GC1073, read-out: MINIMAL INHIBITORY CONCENTRATION MIC, Human Serum): 8 µg/mL (≈ 10.2 µM)
MIC (E. coli GC 1073; GC1073, read-out: MINIMAL INHIBITORY CONCENTRATION MIC, Mouse Serum): 1 µg/mL (≈ 1.28 µM)
MIC (E. coli GC 1073; GC1073, read-out: MINIMAL INHIBITORY CONCENTRATION MIC, Water): 4 µg/mL (≈ 5.12 µM)
MIC (Staph.; MRSA, read-out: Range of MIC, Staph (Mouse Serum)): 0.5 to 1 µg/mL (≈ 0.64 to 1.28 µM)
MIC (Staph.; MRSA, read-out: Range of MIC, Staph (Water)): 2 to 4 µg/mL (≈ 2.56 to 5.12 µM)
MIC (Staph.; read-out: Minimum inhibitory concentration (MIC), Staph (Human Serum)): 0.5 to 4 µg/mL (≈ 0.64 to 5.12 µM)
MIC (Staph.; read-out: Minimum inhibitory concentration (MIC), Staph (Water)): 2 to 4 µg/mL (≈ 2.56 to 5.12 µM)
